Experimental data: ChEMBL document CHEMBL5223105, “Nitro compounds against trypanosomatidae parasites: Heroes or villains?” (Bioorg Med Chem Lett, 2022)
pEC50, pIC50: −log10 of the molar value. In brackets after ≈: the same amount, converted by molar mass. Blank lines part the entries; values can stand above or below the compound they belong to.

Experiments:
[1] = test system: Trypanosoma cruzi; assay: Antitrypanosomal activity against Trypanosoma cruzi X10/7-Silvio; format: functional, organism-based
[2] = Cytotoxicity against CHO cells; format: toxicity, cell-based, Cricetulus griseus; settings: chinese hamster
[3] = test system: Trypanosoma cruzi; assay: Antitrypanosomal activity against Trypanosoma cruzi INC-5; format: functional
[4] = test system: Trypanosoma cruzi; assay: Antitrypanosomal activity against Trypanosoma cruzi NINOA; format: functional
[5] = Cytotoxicity against mouse J774.2 cells; format: toxicity, cell-based
[6] = Selectivity index, ratio of CC50 for […] J774.2 cells to IC50 Leishmania donovani LCR-L 133 LRC; format: toxicity; settings: J774.2 cells versus Leishmania donovani LCR-L 133 LRC; read-out: Ratio CC50/IC50
[7] = test system: Leishmania donovani; assay: Antileishmanial activity against Leishmania donovani LCR-L 133 LRC infected in J774.2 cells; format: functional, organism-based
[8] = test system: Trypanosoma cruzi; assay: Antitrypanosomal activity against Trypanosoma cruzi Y; format: functional, organism-based
[9] = test system: Leishmania infantum; assay: Antileishmanial activity against Leishmania infantum amastigotes MCAN/ES/2001/UCM-10 infected in J774.2 cells; format: functional, organism-based; settings: MCAN/ES/2001/UCM-10, J774.2
[10] = Selectivity index, ratio of CC50 for […] J774.2 cells to IC50 Leishmania infantum MCAN/ES/2001/UCM-10; format: toxicity; settings: J774.2 cells versus Leishmania infantum MCAN/ES/2001/UCM-10; read-out: Ratio CC50/IC50
[11] = Selectivity index, ratio of EC50 for Trypanosoma cruzi epimastigotes to LC50 for african green monkey Vero cells; format: toxicity; settings: Vero cells versus Trypanosoma cruzi epimastigotes, read-out: Selectivity Index
[12] = Cytotoxicity against african green monkey Vero cells; format: toxicity, cell-based; settings: chlorocebus sabaeus, read-out: LC50 (the source's name)
[13] = test system: Trypanosoma cruzi; assay: Antitrypanosomal activity against Trypanosoma cruzi epimastigotes; format: functional, organism-based
[14] = test system: Trypanosoma cruzi; assay: Antitrypanosomal activity against Trypanosoma cruzi epimastigotes assessed as parasite growth inhibition at 50 uM; format: functional; set-up: scale not given: the % may be the effect or the level left
[15] = test system: Trypanosoma cruzi; assay: Antitrypanosomal activity against Trypanosoma cruzi Brener; format: functional, organism-based
[16] = test system: Trypanosoma cruzi; assay: Antitrypanosomal activity against Trypanosoma cruzi LQ; format: functional, organism-based
[17] = test system: Trypanosoma cruzi; assay: Antitrypanosomal activity against Trypanosoma cruzi Tulahuen; format: functional, organism-based
[18] = Selectivity index, ratio of CC50 for […] J774.2 cells to IC50 Leishmania braziliensis MHOM/BR/1975/M2904; format: toxicity; settings: read-out: Ratio CC50/IC50
[19] = test system: Leishmania braziliensis; assay: Antileishmanial activity against Leishmania braziliensis MHOM/BR/1975/M2904 infected in J774.2 cells; format: functional, organism-based; settings: MHOM/BR/1975/M2904, J774.2
[20] = Selectivity index, ratio of CC50 for rat L6 cells to IC50 for Leishmania donovani; format: toxicity; settings: L6 cells versus Leishmania donovani, read-out: Ratio CC50/IC50
[21] = Cytotoxicity against rat L6 cells; format: toxicity, cell-based
[22] = test system: Leishmania donovani; assay: Antileishmanial activity against Leishmania donovani axenic amastigotes; format: functional, organism-based

pEC50 [1]: 5.44
SMILES: O=C(Cn1cccc1[N+](=O)[O-])Nc1cccc(C(F)(F)F)c1
CC50 [2]: 156 µM

pIC50 [7]: 5.80
SMILES: O=[N+]([O-])c1ccc2c(c1)c(Oc1ccccc1)nn2CCBr
CC50 [5]: 588 µM
selectivity ratio [6]: 120

pIC50 [9]: 4.92
SMILES: Cn1nc(OCc2ccccc2)c2cc([N+](=O)[O-])ccc21
CC50 [5]: 179 µM
selectivity ratio [10]: 14.8

pEC50 [1]: 5.22
SMILES: O=C(Cn1cccc1[N+](=O)[O-])Nc1ccccc1
CC50 [2]: 262 µM

pIC50 [15]: 5.13
pIC50 [16]: 5.13
pIC50 [17]: 5.13
SMILES: CC(=O)Nc1nnc(-c2ncc([N+](=O)[O-])n2C)s1

pIC50 [9]: 5.46
pIC50 [19]: 5.09
SMILES: COc1nn(CCN)c2ccc([N+](=O)[O-])cc12
CC50 [5]: 489 µM
selectivity ratio [18]: 60
selectivity ratio [10]: 140

pIC50 [9]: 5.04
SMILES: CNCCOCCn1nc(OCc2ccccc2)c2cc([N+](=O)[O-])ccc21
CC50 [5]: 197 µM
selectivity ratio [10]: 21.6

pIC50 [15]: 4.51
pIC50 [17]: 4.47
SMILES: Cn1c([N+](=O)[O-])cnc1-c1nnc(NC(=O)C(F)(F)F)s1

The remaining lines, values behind:

SMILES: O=[N+]([O-])c1ccc(/C=N/NS(=O)(=O)c2ccccc2)cc1
LC50 [3]: 4.68 µM
LC50 [4]: 26.3 µM

SMILES: Cn1cnc([N+](=O)[O-])c1-c1nnc(N)[nH]1
pIC50 [8]: 4.41

SMILES: O=[N+]([O-])c1ccc(/C=N/N=c2\[nH]nc(Cl)c3ccccc23)o1
selectivity ratio [11]: 8.82
CC50 [12]: 100 µM
pEC50 [13]: 5.20
Activity [14]: 48%

SMILES: CCC(=O)N(/N=C/c1ccccc1[N+](=O)[O-])S(=O)(=O)c1ccccc1
LC50 [3]: 0.61 µM
LC50 [4]: 68.1 µM

SMILES: O=[N+]([O-])c1ccc(/C=N/N=c2\[nH]nc(Cl)c3ccccc23)s1
selectivity ratio [11]: 5.14
CC50 [12]: 37 µM
pEC50 [13]: 5.14
Activity [14]: 54%

SMILES: COc1cc(CSc2nnc(-c3ncc([N+](=O)[O-])n3C)s2)cc(OC)c1OC
selectivity ratio [20]: 240
CC50 [21]: 19.4 µg/mL (≈ 45.9 µM)
IC50 [22]: 0.081 µg/mL (≈ 0.191 µM)

SMILES: O=[N+]([O-])c1ccccc1/C=N/NS(=O)(=O)c1ccccc1
LC50 [3]: 15.2 µM
LC50 [4]: 218 µM
